According to PMC10301432, “Antiplasmodial, Trypanocidal, and Genotoxicity In Vitro Assessment of New Hybrid α,α-Difluorophenylacetamide-statin Derivatives” (Pharmaceuticals, 2023):
Entries after “also recorded” stand apart in the source; their conditions may differ. Read-outs that look alike come from different tables or passages of the source.

What was measured:
[1] = system: Salmonella enterica serovar Typhimurium TA98; experiment: Salmonella/microsome assay, TA98
Experimental: (§1) Salmonella enterica serovar Typhimurium (S. typhimurium) strains TA97, TA98, TA100, TA104 and TA102 from the authors’ stock were used as described in the mutagenicity assay.
(§2) To determine the cytotoxic effects, after 30 min pre-incubation, the assay mixtures were diluted in 0.9% NaCl (w/v) to obtain a suspension containing 2 × 10^2 cells/mL. […] The plates were then incubated at 37 °C for 24 h and the colonies counted. All the experiments were conducted in triplicate and were repeated at least twice. Statistical differences between the groups were analyzed by a two-way ANOVA (p < 0.05) and Tukey’s post hoc test.

[2] = system: P. falciparum parasites (W2 clone) chloroquine-resistant; experiment: Antiplasmodial activity, anti-HRPII assay; format: cell-based, Plasmodium falciparum; conditions: for SI: LC50 (HepG2)/EC50 (P. falciparum); for EC50: P. falciparum W2 clone, 24 h at 37 °C, read-out: EC50; for Antiplasmodial Activity: summarized outcome
Excerpt: P. falciparum W2 clone was maintained in continuous culture as previously described. […] Prior to testing, the ring-stage parasites were synchronized using sorbitol.
The test quantification was read at 450 nm on a spectrophotometer (SpectraMax340PC384, Molecular Devices Sunnyvale, CA, USA), and the drug activity was expressed as the half-maximal inhibitory concentration (EC50) compared to the drug-free controls using the curve-fitting software Origin 8.0 (OriginLab Corporation, Northampton, MA, USA).

[3] = Salmonella/microsome assay, TA104; conditions: Salmonella enterica serovar Typhimurium
Experimental: as §1, §2

[4] = system: Salmonella enterica serovar Typhimurium TA104; experiment: Salmonella/microsome assay, TA104
Experimental: as §1, §2

in vitro = format: cell-based; conditions: mouse
Experimental: Cardiac cell cultures were incubated for 24 h at 37 °C with different concentrations of the compounds (up to 200 µM) diluted in DMEM (without phenol red). Their morphology and spontaneous contractibility were evaluated by light microscopy and then the cellular viability was determined by the PrestoBlue® assay. For this colorimetric bioassay, PrestoBlue® (Invitrogen, Waltham, MA, USA) was added to each well (using a 10:1 medium/dye), the plate was further incubated for 24 h followed by optical density (OD) measurement performed at 570 and 600 nm, as recommended by the manufacturer.

[5] = system: trypomastigote forms of T. cruzi (Y strain); experiment: Trypanocidal activity on bloodstream trypomastigotes; format: cell-based, Trypanosoma cruzi; conditions: for EC50: Trypanosoma cruzi, bloodstream trypomastigotes, Y strain, 24 h at 37 °C
Experimental: (§3) Bloodstream trypomastigote forms (BT) of the Y strain were obtained from infected albino Swiss mice at the peak of parasitemia, isolated by differential centrifugation and resuspended in DMEM to a parasite concentration of 10^7 cells/mL in the presence of 10% of mouse blood. This suspension (100 µL) was added in the same volume of 13 (a–d) and 14 (a–d) previously prepared at twice the desired final concentrations.

HepG2 cells = experiment: In vitro micronuclei assay, HepG2; format: cell-based, human; conditions: HepG2; 3 h of exposure
Experimental: Fresh HepG2 and CHO-K1 cells were seeded at the density of 1 × 10^5 cells/mL into 24-well plates (1 mL/per well). The compounds 13 (a–d) were then added to the medium to final concentrations of 500, 1000 and 2000 µM and incubation continued for 3 h or 24 h. DMSO 10% was used as the negative control, and, BaP (80 µM) for HepG2 and MMC (5 µM) for CHO-K1 were the positive controls. After exposure to the compounds, the cells were incubated for more than 24 h under growth conditions before quantification of the micronuclei and cytotoxicity. The cytogenetic studies were carried out in triplicate as described previously (see [51]). In order to determine the mitotic index and the number of cells with micronuclei, the medium was replaced by a cold methanol-glacial acetic acid (3:1) fixative for 30 min, and the cells then rinsed with distilled water for 2 min and air dried. The fixed cells were stained with 4,6-diamidino-2-phenylindole (DAPI) ([…]) dissolved in McIlvaine buffer (0.1 M citric acid plus 0.2 M Na2HPO4, pH 7.0) for 60 min, washed with McIlvaine buffer for 5 min, briefly rinsed with distilled water and mounted in glycerol. To determine the mitotic index and the number of cells with micronuclei, 1000 cells per well (3000 cells per concentration) were analyzed under a fluorescence microscope. The results for micronuclei were presented as the percentage of cells containing micronuclei in the 3000 cells/concentration group analyzed. Cells that glowed brightly and had homogenous nuclei were considered as having normal phenotypic morphology. Apoptotic nuclei were identified by the condensed chromatin at the periphery of the nuclear membrane or by fragmented nuclear body morphology. Necrotic cells presented chromatin forms with irregularly shaped aggregates, a pyknotic nucleus (shrunken and darkly stained) and cell membrane disruption, with cellular debris spilled into the extracellular milieu. Once again, 3000 cells were counted and the percentage of viable cells was evaluated, discounting apoptotic and necrotic cells. Statistical differences between the groups were analyzed by two-way ANOVA (p < 0.01) and Tukey’s post hoc test.

T. cruzi = experiment: Trypanocidal in vitro phenotypic screening, overall outcome; format: cell-based, Trypanosoma cruzi; conditions: summarized outcome
Experimental: as §3
Tissue culture-derived trypomastigotes (Tulahuen strain expressing the E. coli β-galactosidase gene) were maintained in L929 cell lines and collected from the supernatant after 96 h of parasite infection, following previously established protocols. Briefly, after 24 h of L929 platting (4 × 10^3 cells/well), the cultures were incubated with trypomastigotes (10:1 parasite/host cell ratio) for 2 h at 37 °C. Then, the cell cultures were rinsed to remove non-internalized parasites and then further incubated for 24 h at 37 °C. Then the infected cultures were followed using two sequential protocols. […] After this period, 50 µL chlorophenol red glycoside (500 µM) in 0.5% Nonidet P40 was added to each well and the plate was incubated for more than 18 h at 37 °C, after which the absorbance was measured at 570 nm. Then, the compounds were next evaluated using dose–response assays in which Tulahuen-infected-L929 cells were exposed to different non-toxic concentrations of each compound (0–50 µM) and then after 96 h of incubation the same procedure was conducted as above reported. Controls with untreated and Bz-treated cells are run in parallel. The results were expressed as the percent difference in the reduction between treated and untreated cells.

[6] = Plasmodium falciparum, W2, 24 h

CC(=O)Nc1ccc(C)cc1C(F)(F)C(=O)NCC[C@@H]1C[C@H](CC(=O)OC(C)(C)C)OC(C)(C)O1 [Compound 13b, tert-Butyl 2-((4R,6R)-6-(2-(2-(2-acetamido-5-methylphenyl)-2,2-difluoroacetamido)ethyl)-2,2-dimethyl-1,3-dioxan-4-yl)acetate]
revertant His+ colonies TA98 ([1]; +S9, 3 µM): 27 ± 5
revertant His+ colonies TA98 ([1]; +S9, 15 µM): 27 ± 1
revertant His+ colonies TA98 ([1]; +S9, 30 µM): 27 ± 5
revertant His+ colonies TA98 ([1]; +S9, 150 µM): 27 ± 5
revertant His+ colonies TA98 ([1]; +S9, 300 µM): 39 ± 1
revertant His+ colonies TA98 ([1]; +S9, 1500 µM): 45 ± 4
revertant His+ colonies TA98 ([1]; −S9, 3 µM): 18 ± 2
revertant His+ colonies TA98 ([1]; −S9, 15 µM): 19 ± 3
revertant His+ colonies TA98 ([1]; −S9, 30 µM): 21 ± 5
revertant His+ colonies TA98 ([1]; −S9, 150 µM): 22 ± 2
revertant His+ colonies TA98 ([1]; −S9, 300 µM): 22 ± 2
revertant His+ colonies TA98 ([1]; −S9, 1500 µM): 26 ± 4
SI [2]: >70
EC50 [2]: 14.3 ± 0.2 µM
EC50 [2, 6]: < 14 µM
Antiplasmodial Activity [2]: Yes
CC50 at 30 min ([3]; S. typhimurium TA104 with S9 mix, LC50 (bacterial cytotoxicity) TA104, presence of S9 mix): > 1500 µM
CC50 at 30 min ([3]; S. typhimurium TA104 without S9 mix, pH 7.4, LC50 (bacterial cytotoxicity) TA104, absence of S9 mix): > 1500 µM
revertant His+ colonies TA104 ([4]; +S9, 3 µM): 355 ± 12
revertant His+ colonies TA104 ([4]; +S9, 15 µM): 356 ± 14
revertant His+ colonies TA104 ([4]; +S9, 30 µM): 421 ± 67
revertant His+ colonies TA104 ([4]; +S9, 150 µM): 447 ± 45
revertant His+ colonies TA104 ([4]; +S9, 300 µM): 449 ± 18
revertant His+ colonies TA104 ([4]; +S9, 1500 µM): 510 ± 13
revertant His+ colonies TA104 ([4]; −S9, 3 µM): 210 ± 11
revertant His+ colonies TA104 ([4]; −S9, 15 µM): 267 ± 15
revertant His+ colonies TA104 ([4]; −S9, 150 µM): 326 ± 13
revertant His+ colonies TA104 ([4]; −S9, 300 µM): 350 ± 22
revertant His+ colonies TA104 ([4]; −S9, 1500 µM): 400 ± 11
CC50 at 96 h (in vitro): 114 ± 35.4 µM
EC50 [5]: > 500 µM
cytotoxicity (survival rate) in micronuclei assay (HepG2 cells): statistical enhancement; also recorded: cytotoxic
micronuclei formation (genotoxicity) (HepG2 cells): statistical enhancement; also recorded: genotoxic; also recorded: only increased micronucleation in HepG2 cells at >2000 µM
Trypanocidal Activity (T. cruzi): No

CC(=O)Nc1ccc(Br)cc1C(F)(F)C(=O)NCC[C@@H]1C[C@H](CC(=O)OC(C)(C)C)OC(C)(C)O1 [Compound 13d, tert-Butyl 2-((4R,6R)-6-(2-(2-(2-acetamido-5-bromophenyl)-2,2-difluoroacetamido)ethyl)-2,2-dimethyl-1,3-dioxan-4-yl)acetate]
revertant His+ colonies TA98 ([1]; +S9, 3 µM): 28 ± 1
revertant His+ colonies TA98 ([1]; +S9, 15 µM): 28 ± 5
revertant His+ colonies TA98 ([1]; +S9, 30 µM): 31 ± 7
revertant His+ colonies TA98 ([1]; +S9, 150 µM): 34 ± 2
revertant His+ colonies TA98 ([1]; +S9, 300 µM): 34 ± 4
revertant His+ colonies TA98 ([1]; +S9, 1500 µM): 35 ± 3
revertant His+ colonies TA98 ([1]; −S9, 3 µM): 22 ± 7
revertant His+ colonies TA98 ([1]; −S9, 15 µM): 23 ± 5
revertant His+ colonies TA98 ([1]; −S9, 30 µM): 25 ± 1
revertant His+ colonies TA98 ([1]; −S9, 150 µM): 25 ± 1
revertant His+ colonies TA98 ([1]; −S9, 300 µM): 27 ± 5
revertant His+ colonies TA98 ([1]; −S9, 1500 µM): Cytotoxic
SI [2]: Inactive
EC50 [2, 6]: > 89 µM
Antiplasmodial Activity [2]: No
revertant His+ colonies TA104 ([4]; +S9, 3 µM): 490 ± 52
revertant His+ colonies TA104 ([4]; +S9, 15 µM): 513 ± 19
revertant His+ colonies TA104 ([4]; +S9, 30 µM): 530 ± 7
revertant His+ colonies TA104 ([4]; +S9, 150 µM): 541 ± 29
revertant His+ colonies TA104 ([4]; +S9, 300 µM): 589 ± 5
revertant His+ colonies TA104 ([4]; +S9, 1500 µM): 591 ± 11
revertant His+ colonies TA104 ([4]; −S9, 3 µM): 469 ± 65
revertant His+ colonies TA104 ([4]; −S9, 15 µM): 515 ± 61
revertant His+ colonies TA104 ([4]; −S9, 30 µM): 570 ± 53
revertant His+ colonies TA104 ([4]; −S9, 150 µM): 605 ± 61
revertant His+ colonies TA104 ([4]; −S9, 300 µM): 615 ± 15
revertant His+ colonies TA104 ([4]; −S9, 1500 µM): 620 ± 31
CC50 at 96 h (in vitro): 114 ± 5.29 µM
SI ([5]; LC50 (cardiac cells)/EC50 (trypomastigotes)): >21.6
EC50 [5]: 23.2 ± 3.13 µM
cytotoxicity (survival rate) in micronuclei assay (HepG2 cells): non-cytotoxic
micronuclei formation (genotoxicity) (HepG2 cells): induced a significant micronuclei formation; also recorded: induced genotoxicity
Trypanocidal Activity (T. cruzi): Yes
